Source: paper PMC3134859, “Chemical Stability of New Acyclovir Analogues with Peptidomimetics” (Scientia Pharmaceutica, 2011)
Values joined by “and” are separate entries in the source; they are usually repeats but may differ in a detail not shown here. Identical values can stand only once. Like-named read-outs stand apart in the source and are kept apart here.

Columns and labels:
[1] = cited from earlier work
[2] = cited from earlier work; remark: listed apart in the source
[3] = Chemical stability (hydrolysis) of acyclovir esters in aqueous buffer, unchanged ester quantified by HPLC; format: physicochemical; conditions: for pH=1, t½, h: pH 1.0 (0.1 M HCl); for pH=1, t½, h / pH=7.4, t½, h: 37°C, decomposition half-life; for chemical stability at pH 1 (in words): pH 1.0, 37°C, acidic conditions; for pH=7.4, t½, h: pH 7.4 (phosphate buffer); for chemical stability at pH 7.4 (in words): pH 7.4, 37°C
Description: It was established that, under the described experimental conditions, some esters underwent decomposition by hydrolysis. The hydrolysis followed apparent first order kinetics, and the rate constants (K) were obtained as slopes from the semi-logarithmic plots of the unchanged ester concentration versus time. The chemical stability was assessed by means of the decomposition half-lives: t1/2=ln2/K
Chromatography was carried out isocratically, on a modular KNAUER HPLC system (Germany), consisting of a Smartline Pump 1000, a Smartline Manager 5000 solvent degasser, an injector with a 20 μl loop and a Smartline UV Detector 2600 diode array. The analyses were controlled and the data were acquired with EuroChrom software. The mobile phase consisted of acetonitrile/water in a ratio of 30:70 or 50:50 v/v depending on the polarity of the compound and a flow rate 1 ml/min was used. The detection was performed at relevant λmax for the respective compound (range 252–262 nm).
A single chromatographic method was used to detect the studied acyclovir esters with thiazole rings containing amino acids (Gly, Ala, Val, Leu) in aqueous buffer solutions at pH 1.0 (0.1 M HCl) and pH 7.4 (phosphate buffer). Twenty microlitres of each sample were injected into a reverse phase HPLC C18 column. The mobile phase consisted of acetonitrile/water at a ratio of 30:70 or 50:50 v/v depending on the polarity of the compound. The analyses of the esters of acyclovir with amino acid (Gly, Ala, Val, Leu) containing thiazole rings were validated. The specificity of the method was investigated by observing potential interference between the esters of acyclovir and its parent drug, acyclovir. No interfering peaks were presented in the chromatograms. The linearity of the relationship between the peak area and concentration was determined by analysing six standard solutions in a concentration range of 0.1–1.0 mmol/l. For all analytes, the relationship between the peak area ratio of the drug to the internal standard and concentration was linear over the entire examined concentration range. The correlation coefficients of the calibration curves were greater than 0.997.
Hydrolysis of acyclovir esters with thiazole rings containing amino acids (Gly, Ala, Val, Leu) was studied at pH 1.0 (HCl) and pH 7.4 (phosphate buffered saline). Stock solutions of the prodrugs were prepared and used immediately for stability studies. Aliquots (9.8 ml) of the buffer were placed in a screw-capped vial and allowed equilibrate at 37°C. A prodrug stock solution (0.2 ml) was added to the buffer. The vial was placed in a constant shaker bath set at 37°C and 60 rpm. Each sample was directly analysed by HPLC.

HSV-2 = system: HSV-2; set-up: method as in PMID 19400144; conditions: cited from earlier work
HSV-1 = system: HSV-1; set-up: method as in PMID 19400144; conditions: cited from earlier work
[4] = cited from earlier work; remark: listed apart in the source

| SMILES | pH=1, t½, h [3] | chemical stability at pH 1 (in words) [3] | pH=7.4, t½, h [3] | chemical stability at pH 7.4 (in words) [3] | effect against HSV-2 (HSV-2) | also measured |
| --- | --- | --- | --- | --- | --- | --- |
| Nc1nc2c(ncn2COCCO)c(=O)[nH]1 [ACV, 9-[(2-hydroxyethoxy)methyl]guanine] |  |  |  |  |  | bioavailability by oral administration [1]: 14%; aqueous solubility [2]: low aqueous solubility |
| CC(C)(C)OC(=O)NCc1nc(C(=O)OCCOCn2cnc3c(=O)[nH]c(N)nc32)cs1 [compound 1, Boc-2-aminomethyl-thiazole-acyclovir] | 1.1±0.1 h | less stable | 5.9±0.5 h | lower stability |  | chemical stability at pH 1 (in words) ([3]; listed as Gly-thiazole): rather unstable |
| CC(NC(=O)OC(C)(C)C)c1nc(C(=O)OCCOCn2cnc3c(=O)[nH]c(N)nc32)cs1 (stereo not drawn) [compound 2, Boc-2-Ala-thiazole-acyclovir] | 1.3±0.1 h | rather unstable | 7.8±0.5 h | satisfying chemical stability | appreciable effect | effect against HSV-2 (HSV-2; listed as Ala-thiazolyl ester of acyclovir): prominent activity |
| CC(C)C(NC(=O)OC(C)(C)C)c1nc(C(=O)OCCOCn2cnc3c(=O)[nH]c(N)nc32)cs1 (stereo not drawn) [compound 3, Boc-2-Val-thiazole-acyclovir] | 0.7±0.1 h | less stable | 17 h and 17.8±0.9 h | highest chemical stability | did not exhibit a satisfying effect | effect against HSV-1 (HSV-1): did not exhibit a satisfying effect; chemical stability at pH 7.4 (in words) ([3]; listed as Valthiazole-acyclovir): remarkable |
| CC(C)CC(NC(=O)OC(C)(C)C)c1nc(C(=O)OCCOCn2cnc3c(=O)[nH]c(N)nc32)cs1 (stereo not drawn) [compound 4, Boc-2-Leu-thiazole-acyclovir] | 2.6±0.2 h | rather unstable | 5.0±0.4 h | lower stability |  |  |
| CC(C)[C@H](N)C(=O)OCCOCn1cnc2c(=O)[nH]c(N)nc21 [valacyclovir] |  |  |  |  |  | bioavailability relative to acyclovir ([1]; oral administration): four-fold higher; t½ at pH 7.4 ([4]; pH 7.4, 37°C): 13 h; t½ at pH 7.4 ([4]; pH 7.4): 13 h |
